Measurements taken from ChEMBL document CHEMBL3045620, “Trypsin inhibitory potential and microbial transformation of rutin isolated from Citrus sinensis” (Med Chem Res, 2013).

Assays:
Format in all cases: protein assay
Trypsin [1] = target: T1, Trypsin (Homo sapiens, UniProt P07477+P07478+P35030); experiment: Inhibition of trypsin (unknown origin) using BApNA as substrate incubated for 15 min prior to substrate addition measured after 30 min by UV/VIS spectrophotometric analysis
Trypsin [2] = target: T1, Trypsin; experiment: Inhibition of trypsin (unknown origin) using BApNA as substrate at 2 mg/ml incubated for 15 min prior to substrate addition measured after 30 min by UV/VIS spectrophotometric analysis
Trypsin [3] = target: T1, Trypsin; experiment: Non-competitive inhibition of trypsin (unknown origin) using BApNA as substrate by Lineweaver-Burk/Dixon plot analysis

Row | Compound | IC50 (Trypsin [1]) [µM] | inhibition (Trypsin [2]) [%] | Ki (Trypsin [3]) [µM]
1 | O=S(=O)(F)Cc1ccccc1 [PHENYLMETHYLSULFONYLFLUORIDE] | 110 | 87.4 | 
2 | O=c1c(O)c(-c2ccc(O)c(O)c2)oc2cc(O)cc(O)c12 [QUERCETIN] | 19 | 84.1 | 13.1
3 | C[C@@H]1O[C@@H](OC[C@H]2O[C@@H](Oc3c(-c4ccc(O)c(O)c4)oc4cc(O)cc(O)c4c3=O)[C@H](O)[C@@H](O)[C@@H]2O)[C@H](O)[C@H](O)[C@H]1O [RUTIN] | 16 | 75.2 | 17.5
